The record followed here is PubChem BioAssay (NCI).

SMILES strings stand for the structures.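 Following 48 hours of exposure in 96-well plates, responses at five concentrations were used to interpolate endpoints linearly. TGI denotes the concentration required for complete inhibition of growth.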

Test systems include UO-31 renal; HS 578T breast; MDA-N; NCI-H23 lung; SF-268 CNS; 786-0 renal; M14 melanoma; HT29 colon; DU-145 prostate; SF-295 CNS; MDA-MB-231 breast; CAKI-1 renal; SN12C renal.
Test in all cases: NCI anticancer screen, dose series, 48 h

Turning to `CC[C@@]1(O)C(=O)OCc2c1cc1n(c2=O)Cc2c-1nc1ccccc1c2/C=N\NC(=O)C(C)N` (stereo partly drawn), the TGI is 2.12 µM in the assay on UO-31 renal; more than 100 µM in the assay with HS 578T breast; more than 100 µM with MDA-N; 0.847 µM in the assay with NCI-H23 lung; more than 100 µM in the assay on SF-268 CNS; 2 µM with 786-0 renal. The TGI is 5.05 µM in the assay with M14 melanoma; more than 47.1 µM in the assay with HT29 colon; 0.398 µM with DU-145 prostate; 8.14 µM in the assay with SF-295 CNS; more than 100 µM in the assay with MDA-MB-231 breast; 2.57 µM with CAKI-1 renal. For the same molecule, the TGI in the assay on SN12C renal came out at 11.1 µM.
For the molecule `COC(Cc1ccccc1)NC(C)=O` (stereo not drawn), the TGI in the assay on UO-31 renal, in the assay on HS 578T breast, in the assay on MDA-N, in the assay on NCI-H23 lung, in the assay with SF-268 CNS and with 786-0 renal was more than 100 µM in each case. Further, the TGI in the assay with M14 melanoma, in the assay on HT29 colon, in the assay with DU-145 prostate, in the assay on SF-295 CNS, in the assay with MDA-MB-231 breast and in the assay with CAKI-1 renal was more than 100 µM in each case. Besides, in the assay on SN12C renal, the TGI is more than 100 µM.
As for `CC(=O)OC1COC(Nn2c(=O)[nH]c3ccccc3c2=O)C(OC(C)=O)C1OC(C)=O` (stereo not drawn), the TGI in the assay with UO-31 renal, with HS 578T breast, in the assay with MDA-N, in the assay with NCI-H23 lung, in the assay with SF-268 CNS and in the assay on 786-0 renal was more than 100 µM in each case. For the same molecule, the TGI in the assay with M14 melanoma, with HT29 colon, with DU-145 prostate, in the assay with SF-295 CNS, with MDA-MB-231 breast and with CAKI-1 renal was more than 100 µM throughout. This molecule also displayed a TGI in the assay with SN12C renal of more than 100 µM.
On to `CC(C)=CCC[C@H](C)[C@H]1CC[C@@H](C)c2cc(O)c(C)cc21`, for which the TGI in the assay on UO-31 renal is 28.2 µM; in the assay with HS 578T breast it was 37.8 µM; in the assay with MDA-N, 32.1 µM; in the assay on NCI-H23 lung, 33 µM; with SF-268 CNS it was 31.2 µM; in the assay on 786-0 renal, 33.3 µM. Besides, the TGI in the assay with M14 melanoma came out at 33.9 µM; with HT29 colon, 37.2 µM; with DU-145 prostate, 37.9 µM; with SF-295 CNS, 32.2 µM; with MDA-MB-231 breast, 34 µM; in the assay on CAKI-1 renal, 31.9 µM. For the same molecule, the TGI with SN12C renal was 29.8 µM.
Turning to `O=C1NN(c2ccccc2)C(=O)C2C3c4ccccc4C(c4ccccc43)C12` (stereo not drawn), the TGI in the assay on UO-31 renal, in the assay on HS 578T breast, with MDA-N, in the assay with NCI-H23 lung, in the assay on SF-268 CNS and in the assay with 786-0 renal was more than 100 µM in each case. Besides, the TGI with M14 melanoma, in the assay with HT29 colon, with DU-145 prostate, with SF-295 CNS, with MDA-MB-231 breast and in the assay with CAKI-1 renal was more than 100 µM in each case. In the assay with SN12C renal, this molecule had a TGI of more than 100 µM.
Turning to `N=c1oc2c(Cl)cc(Cl)cc2cc1C(=O)Nc1ccccn1`, the TGI was more than 100 µM in the assay with UO-31 renal; 48.4 µM with HS 578T breast; more than 100 µM in the assay on MDA-N; more than 100 µM with NCI-H23 lung; more than 100 µM with SF-268 CNS; more than 100 µM in the assay on 786-0 renal. Further, the TGI in the assay with M14 melanoma, in the assay with HT29 colon, with DU-145 prostate, with SF-295 CNS, in the assay on MDA-MB-231 breast and with CAKI-1 renal was more than 100 µM each time. In addition, in the assay with SN12C renal, the TGI was more than 100 µM.
Turning to `CC(=O)OCc1cn(S(=O)(=O)c2ccc(C)cc2)cn1`, the TGI in the assay on UO-31 renal was more than 100 µM; with HS 578T breast, more than 100 µM; with MDA-N, 52.6 µM; in the assay with NCI-H23 lung it was more than 100 µM; in the assay on SF-268 CNS, 97.5 µM; with 786-0 renal, more than 100 µM. In addition, the TGI in the assay on M14 melanoma, in the assay on HT29 colon, with DU-145 prostate, with SF-295 CNS, in the assay with MDA-MB-231 breast and in the assay with CAKI-1 renal was more than 100 µM in each case. The same molecule yielded a TGI with SN12C renal of more than 100 µM.
On to `CN1CCN(c2ccc(-n3cc(C(=O)O)c(=O)c4cc(F)c(N5CCN(C)CC5)cc43)nc2)CC1`, for which the TGI with UO-31 renal, in the assay with HS 578T breast, in the assay on MDA-N, in the assay with NCI-H23 lung, in the assay with SF-268 CNS and in the assay with 786-0 renal was more than 100 µM each time. Further, the TGI in the assay with M14 melanoma, in the assay with HT29 colon, in the assay on DU-145 prostate, in the assay on SF-295 CNS, in the assay on MDA-MB-231 breast and in the assay on CAKI-1 renal was more than 100 µM each time. Further, the TGI with SN12C renal is more than 100 µM.
As to `C[C@]12CCC(=O)C=C1CC[C@@H]1C2CC[C@]2(C)Nc3c(ncn3-c3ccc(F)cc3)CC12` (stereo partly drawn), the TGI is more than 100 µM with UO-31 renal; 71 µM in the assay with HS 578T breast; 42.8 µM in the assay with MDA-N; more than 100 µM in the assay with NCI-H23 lung; more than 100 µM in the assay with SF-268 CNS; more than 100 µM in the assay on 786-0 renal. The TGI is more than 100 µM in the assay with M14 melanoma; more than 100 µM with HT29 colon; more than 100 µM in the assay on DU-145 prostate; 45.3 µM in the assay on SF-295 CNS; more than 100 µM with MDA-MB-231 breast; more than 100 µM in the assay on CAKI-1 renal. In the assay with SN12C renal, the TGI is more than 100 µM.
As to `CCOP(=O)(OCC)/C(C#N)=C/c1c(C)[nH]c2ccccc12`, the TGI in the assay on UO-31 renal is 47.8 µM; in the assay with HS 578T breast it was more than 100 µM; in the assay with MDA-N, more than 100 µM; in the assay on NCI-H23 lung it was more than 100 µM; in the assay on SF-268 CNS it was more than 100 µM; in the assay on 786-0 renal, more than 100 µM. Moreover, the TGI with M14 melanoma, with HT29 colon, in the assay with DU-145 prostate, in the assay on SF-295 CNS, in the assay with MDA-MB-231 breast and in the assay with CAKI-1 renal was more than 100 µM each time. This molecule gave a TGI in the assay with SN12C renal of more than 100 µM.
Regarding `CCN(CC)c1nc(N(C)C)c2cc(OC)ccc2n1`, the TGI is more than 100 µM in the assay on UO-31 renal; more than 100 µM in the assay with HS 578T breast; more than 100 µM with MDA-N; more than 100 µM in the assay with NCI-H23 lung; 91.8 µM in the assay on SF-268 CNS; 86.2 µM in the assay with 786-0 renal. Also, the TGI in the assay with M14 melanoma, in the assay with HT29 colon, in the assay with DU-145 prostate, with SF-295 CNS, in the assay on MDA-MB-231 breast and in the assay on CAKI-1 renal was more than 100 µM throughout. In the assay with SN12C renal, this molecule came in with a TGI of 89.3 µM.
